Data: US20020061346A1, “FOOD COMPOSITION” (priority 1998, published 2002)

Experiment: Post-prandial study: carotenoid levels in triglyceride-rich blood fractions after a tomato-based meal with plant sterols
Type: in vivo, human
Details: 20 healthy adult volunteers; single meal with 130 g chunky tomato sauce (5.2 mg lycopene, 2.2 mg beta-carotene) and 2.2 g plant sterols; blood samples over 8 hours; pre-meal level taken as zero
Description: A post-prandial study was undertaken, in which 20 healthy, adult, human volunteers, 10 male, 10 female (age 30-65) were provided with an early-morning tomato-based meal, after which at regular intervals and for a period of 8 hours blood samples were taken. In the triglyceride-rich fractions (mainly consisting of chylomicrons that carry the digested fat and fat-soluble components from the intestine to the liver) of those blood samples the levels of lycopene, beta-carotene and also vitamin A were determined (using straight-phase HPLC analysis using a nucleosil cyanyl-bonded column). The levels of vitamin A (measured as retinyl palmitate) and beta-carotene can be taken together as a measure for beta-carotene uptake, as during absorption (or shortly thereafter) beta-carotene is partly converted into vitamin A. The integrated post-prandial response can then be used to estimate the bioavailability of beta-carotene and lycopene from a meal.
The meal consisted of 200 g of cooked macaroni, 130 g of chunky tomato sauce (containing more chunks of tomato flesh than most commercial tomato sauces) made of yellow, orange and super red varieties, 80 g of lean cooked ham (gammon), 20 g of white bread, and 11.6 g of sunflower oil (stripped, i.e. low in antoixidants) and 2.2 g of plansterols. […]

SMILES | post-prandial response (level in triglyceride-rich blood fractions, FIG. 1)
CC1=C(/C=C/C(C)=C/C=C/C(C)=C/C=C/C=C(C)/C=C/C=C(C)/C=C/C2=C(C)CCCC2(C)C)C(C)(C)CCC1 [beta-carotene] | clear post-prandial response
CC(C)=CCC/C(C)=C/C=C/C(C)=C/C=C/C(C)=C/C=C/C=C(C)/C=C/C=C(C)/C=C/C=C(\C)CCC=C(C)C [lycopene] | clear post-prandial response
